According to US20240390296A1, “R-KETAMINE AND DERIVATIVE THEREOF AS PROPHYLACTIC OR THERAPEUTIC AGENT FOR NEURODE[…] OR R[…]” (National University Corporation Chiba University, priority 2017, published 2024):

Assays:
[1] = test system: animal model of Parkinson's disease; settings: 50 mg/kg (anesthetic dose), cited from earlier work
MPTP-treated mice = assay: MPTP mouse model of Parkinson's disease, DAT immunohistochemistry in the striatum; format: in vivo
From the text: A Parkinson's disease model animal (Jackson-Lewis V. et al. Protocol for the MPTP mouse model of Parkinson's disease. Nat Protoc. 2007; 2 (1): 141-51.), which is a representative Parkinson's disease animal model and has been used by a number of research groups so far, was used to study the therapeutic effect of R-ketamine and S-ketamine on the loss of the dopamine nervous system in the brain of the model animal.
The creation of the Parkinson's disease model animal and the administration of the drug were specifically carried out as described below (FIG. 1). As the mouse, a male C57BL/6N mouse (12 weeks of age, SLC Japan Co., Ltd., Hamamatsu, Japan) was purchased. Mice had free access to water and food. For the experiment, those above 14 weeks of age were used. On the first day of the experiment, physiological saline (5 mL/kg body weight) or MPTP (10 mg/kg body weight) was intraperitoneally administered three times at two hours intervals. Three hours after the final administration, R-ketamine (10 mg/kg body weight) or S-ketamine (10 mg/kg body weight), or a vehicle (physiological saline 0.5 mL/kg) was intranasally administered. Similarly, from the second day to the seventh day of the experiment, R-ketamine (10 mg/kg body weight) or S-ketamine (10 mg/kg body weight), or the vehicle (physiological saline 0.5 mL/kg) was intranasally administered. (A) is a group administered with physiological saline+physiological saline, (B) is a group administered with MPTP+physiological saline, (C) is a group administered with MPTP+R-ketamine, and (D) is a group administered with MPTP+S-ketamine. On the eighth day of the experiment, mice were perfused and fixed, and immunohistochemistry of dopamine transporter (DAT) was carried out. The immunohistochemistry of DAT was photographed with a microscope equipped with a CCD camera (Olympus IX70, Tokyo, Japan), and the shading was analyzed using SCION IMAGE software. Representative immunohistochemical photographs were taken with a Keyence microscope (BZ-9000, Osaka, Japan).
Statistical analysis was carried out by one-way analysis of variance (one-way ANOVA) followed by Tukey's test (Tukey HSD test). Data are expressed as mean±standard error (n=7 to 8 mouse/group). * p<0.05, ** p<0.01, and *** p<0.001 show significant differences compared to the (B) group of mice treated with MPTP+physiological saline.
The test was carried out in the same manner as in the test in FIG. 1 except that R-ketamine (10 mg/kg body weight) or the vehicle (physiological saline 0.5 mL/kg) was intranasally administered once (FIG. 4). There were a group administered with physiological saline+physiological saline, a group administered with MPTP+physiological saline, and a group administered with MPTP+R-ketamine.
The test was carried out in the same manner as in the test in FIG. 1 except that R-norketamine (10 mg/kg body weight) or S-norketamine (10 mg/kg body weight) was administered (FIG. 6). There were a group administered with physiological saline+physiological saline, a group administered with MPTP+physiological saline, a group administered with MPTP+R-norketamine, and a group administered with MPTP+S-norketamine.
The test was carried out in the same manner as in the test in FIG. 1 except that ANA-12 (0.5 mg/kg), an antagonist of the TrkB receptor for brain-derived neurotrophic factor (BDNF: Brain-derived Neurotrophic Factor), was administered before the administration of R-ketamine. (FIG. 8). It should be noted that in FIG. 8, ANA-12 is described as ANA. There was a group administered with physiological saline+physiological saline, a group administered with MPTP+physiological saline, a group administered with MPTP+R-ketamine, a group administered with MPTP+R-ketamine+ANA-12, and a group administered with MPTP+ANA-12.

β-amyloid-treated mice = assay: Alzheimer's disease model (intracerebroventricular β-amyloid), novel object recognition test (NORT); format: in vivo, mouse; settings: 10 mg/kg intraperitoneal once a day, day 2 to day 10; test session day 15; male ICR mice
From the text: Using an animal model of Alzheimer's disease (intracerebroventricular administration of β-amyloid), which has been used by a number of research groups so far, the therapeutic effect of R-ketamine and S-ketamine on the cognitive dysfunction was studied.
The creation of the Alzheimer's disease model animal and the administration of the drug were specifically carried out as described below (FIG. 10). As the mouse, a male ICR mouse (five weeks of age, SLC Japan Co., Ltd., Hamamatsu, Japan) was purchased. Mice had free access to water and food. First, β-amyloid (BACHEM, Cat. #: H-1192.0005) was incubated at 37° C. for four days to let aggregate. On the first day of the experiment, mice were anesthetized with isoflurane and pentobarbital, and placed on a mouse brain fixation apparatus. Distilled water (6 μL) or β-amyloid (6 μg) was administered intracerebroventricularly. […] On the 14th day of the experiment, two objects having different shapes and colors were placed on the NORT apparatus at a distance of 35.5 cm, and the time for searching for each object was measured. […] The time to search for two objects was measured, and the ratio of the time to search for a new object to the time to search for the two objects in the test session on the second day was calculated. […]

[2] = animal experiments, non-patent literature 5; cited from earlier work
α-synuclein-treated mice = assay: Lewy body dementia model (intracerebroventricular α-synuclein), novel object recognition test (NORT); format: in vivo, mouse; settings: 10 mg/kg intraperitoneal once a day, day 2 to day 10; test session day 15; male ICR mice
From the text: The therapeutic effects of R-ketamine and S-ketamine on cognitive dysfunction were studied using animal models of Lewy body dementia and diseases caused by α-synuclein aggregation (intracerebroventricular administration of α-synuclein), which have been used by a number of research groups so far.
The creation of the Lewy body dementia model animal and the administration of the drugs were specifically carried out as described below (FIG. 12). As the mouse, a male ICR mouse (five weeks of age, SLC Japan Co., Ltd., Hamamatsu, Japan) was purchased. Mice had free access to water and food. First, α-synuclein (StressMarq @ Bioscience, Cat #: SPR-322) was incubated at 37° C. for four days to let aggregate. On the first day of the experiment, mice were anesthetized with isoflurane and pentobarbital, and placed on a mouse brain fixation apparatus. Physiological saline (6 μL) or α-synuclein (6 μg) was administered intracerebroventricularly. […]
Statistical analysis was carried out by one-way analysis of variance (one-way ANOVA) followed by the Fisher's least significant difference test (Fisher's Least Significant Difference test). Data are expressed as mean±standard error (n=4 mouse/group). * p<0.05 and ** p<0.01 show significant differences compared to the group of mice treated with α-synuclein+physiological saline.

NMDA receptor = settings: non-patent literature 4; cited from earlier work
[3] = 10 mg/kg intranasal, day 1 (3 h after last MPTP) to day 7, DAT on day 8, male C57BL/6N mice

## CNC1(c2ccccc2Cl)CCCCC1=O (racemic) [RS-ketamine]
[1]; non-patent literature 2
  neuroprotective effect in an animal model of Parkinson's disease: has a neuroprotective effect
[1]
  side effects such as an acute activity increase effect: notably observed

## O=C(Nc1ccccc1C(=O)NC1CCCCNC1=O)c1cc2ccccc2s1 (centres unmarked) [ANA-12]
MPTP-treated mice; ANA-12 alone, 0.5 mg/kg
  MPTP-induced decrease in DAT density: did not affect MPTP-induced decrease in DAT density

## CN[C@@]1(c2ccccc2Cl)CCCCC1=O [R-ketamine]
β-amyloid-treated mice
  decrease in cognitive function caused by β-amyloid administration (NORT): significantly improved the decrease in cognitive function
[2]
  side effects (psychotic disorder triggering effect, drug dependency, and the like) compared with S-ketamine: fewer side effects
MPTP-treated mice; [3]
  MPTP-induced decrease in DAT density in the striatum: significantly improved the decrease in DAT density
MPTP-treated mice; 10 mg/kg intranasal, single administration
  MPTP-induced decrease in DAT density in the striatum: suppressed MPTP-induced decrease in DAT density
MPTP-treated mice; R-ketamine 10 mg/kg intranasal with ANA-12 (0.5 mg/kg) administered before
  MPTP-induced decrease in DAT density in the striatum: No effect of R-ketamine was observed
α-synuclein-treated mice
  decrease in cognitive function caused by α-synuclein administration (NORT): significantly improved the decrease in cognitive function

## N[C@@]1(c2ccccc2Cl)CCCCC1=O [R-norketamine]
MPTP-treated mice; [3]
  MPTP-induced decrease in DAT density in the striatum: did not suppress MPTP-induced decrease in DAT density

## CN[C@]1(c2ccccc2Cl)CCCCC1=O [S-ketamine]
β-amyloid-treated mice
  decrease in cognitive function caused by β-amyloid administration (NORT): did not improve the decrease in cognitive function
NMDA receptor
  affinity for the NMDA receptor relative to R-ketamine: about four times higher than R-ketamine
MPTP-treated mice; [3]
  MPTP-induced decrease in DAT density in the striatum: did not improve the decrease in DAT density

## N[C@]1(c2ccccc2Cl)CCCCC1=O [S-norketamine]
MPTP-treated mice; [3]
  MPTP-induced decrease in DAT density in the striatum: did not suppress MPTP-induced decrease in DAT density
